Experimental findings from patent US7732200B2, “Materials and methods for nerve grafting, selection of nerve grafts, and in vitro nerve tissue culture” (University of Florida Research Foundation, Inc., priority 2001, dated 2010) are described below.

For one data set, the system named is Schwann cell cultures. As to the kind of experiment: Treatment of isolated Schwann cell cultures. The class given is cell-based.
Data set [1] has as its system MMP gelatinolytic activity. As to the kind of experiment: In situ zymography of cultured nerve explants. The class given is biochemical, rat. The settings on record: nerves cultured 2 days, 2% serum, in the presence of GM6001. As to the method:
In situ zymography for nerve predegeneration experiments. Cryosections (10 μm) of unfixed normal and cultured nerves were mounted on slides and overlaid with reaction buffer (50 mM Tris-HCl, 150 mM NaCl, 5 mM CaCl2, 0.2 mM sodium azide, pH 7.6) containing 20 μg/ml of intramolecularly quenched, fluorescein-labeled gelatin substrate (MOLECULAR PROBES INC., Eugene, Oreg.) (Oh et al., 1999). In the control condition, the MMP inhibitor EDTA (30 mM) was included in the reaction buffer. After incubation for 24 h at 37° C., the sections were rinsed with PBS and fixed with 4% paraformaldehyde in phosphate buffer. The sections were rinsed with water and mounted using Citifluor. Fluorescein-gelatin peptides generated by gelatinolytic activity in the tissue sections were observed and photographed by epifluorescence microscopy.
The activity of MMPs is regulated by gene transcription, proenzyme activation and by the action of tissue inhibitors of metalloproteinases. The net gelatinolytic activity in nerve segments by in situ zymography was examined. Tissue sections were overlaid with quenched, fluorescein-gelatin, which is converted to fluorescent peptides by gelatinolytic activity within tissues. Constitutive gelatinolytic activity was detected in normal nerve mostly associated with Schwann cells aligned along the endoneurial basal lamina (as shown in FIGS. 17A and 17B). […]

In a further data set the test system is nerve segments. As to the kind of experiment: Dissociation culture (squash preparations) of cultured nerve segments. Type of data set: cell-based, rat. The conditions noted are these: nerves cultured 2 days, 2% serum, with GM6001.

For the molecule `CNC(=O)[C@H](Cc1c[nH]c2ccccc12)NC(=O)[C@@H](CC(=O)NO)CC(C)C` [GM6001], the “toxicity to isolated Schwann cell cultures” value in the data set on Schwann cell cultures is “very low toxicity”. In addition, the “gelatinolytic activity in nerve explants” value in data set [1] is listed as “nearly undetectable”. Further, in the data set on nerve segments, the “cell viability of nerve segments (cell outgrowth)” value is given as “no loss of cell viability”.
